The source made the active and inactive calls. The rule behind the calls is not given here.
Key:
[1] = Lipophilicity, log D of the compound; assay type: physicochemical; conditions: octanol/water
Mus musculus [2] = test: Induction of CYP24 mRNA transcriptional activity in C57BL/6 mouse duodenum at 25 ug/kg, ip after 4 hrs; assay type: functional, organism-based
Mus musculus [3] = test: Induction of TRPV6 mRNA transcriptional activity in C57BL/6 mouse duodenum at 25 ug/kg, ip after 4 hrs; assay type: functional, organism-based
Mus musculus [4] = test: Induction of CYP24 mRNA transcriptional activity in C57BL/6 mouse duodenum at 3 ug/kg, ip after 4 hrs; assay type: functional, organism-based
Mus musculus [5] = test: Induction of TRPV6 mRNA transcriptional activity in C57BL/6 mouse duodenum at 3 ug/kg, ip after 4 hrs; assay type: functional, organism-based

SMILES	logD [1]	also measured
C=C1/C(=C\C=C2/CCC[C@]3(C)[C@@H]([C@H](C)COC/C=C/C(C)(C)C)CC[C@@H]23)C[C@@H](O)C[C@@H]1O	4.9	–
C=C(COC[C@@H](C)[C@H]1CC[C@H]2/C(=C/C=C3/C[C@@H](O)C[C@H](O)C3=C)CCC[C@]12C)c1ccccc1	5.1	–
C=C1/C(=C\C=C2/CCC[C@]3(C)[C@@H]([C@H](C)COCC#CC(C)(C)C)CC[C@@H]23)C[C@@H](O)C[C@@H]1O	4.6	–
C=C1/C(=C\C=C2/CCC[C@]3(C)[C@@H]([C@H](C)COCc4ccccc4)CC[C@@H]23)C[C@@H](O)C[C@@H]1O	4.4	–
C=C1/C(=C\C=C2/CCC[C@]3(C)[C@@H]([C@H](C)COCC(=C)C(C)(C)C)CC[C@@H]23)C[C@@H](O)C[C@@H]1O	4.7	Activity (Mus musculus [2]): Active; Activity (Mus musculus [3]): Active
C=C1/C(=C\C=C2/CCC[C@]3(C)[C@@H]([C@H](C)COCC(=C)C4(C)CCCCC4)CC[C@@H]23)C[C@@H](O)C[C@@H]1O	5.3	–
C=C1/C(=C\C=C2/CCC[C@]3(C)[C@@H]([C@H](C)CCCC(C)(C)O)CC[C@@H]23)C[C@@H](O)C[C@@H]1O [CALCITRIOL]	3.6	Activity (Mus musculus [4]): Active; Activity (Mus musculus [5]): Active
C=C1/C(=C\C=C2/CCC[C@]3(C)[C@@H]([C@H](C)COCc4ccco4)CC[C@@H]23)C[C@@H](O)C[C@@H]1O	3.3	–
C=C(COC[C@@H](C)[C@H]1CC[C@H]2/C(=C/C=C3/C[C@@H](O)C[C@H](O)C3=C)CCC[C@]12C)C1=CCCCC1(C)C	4.9	Activity (Mus musculus [2]): Active; Activity (Mus musculus [3]): Active

Reference: ChEMBL document CHEMBL1137609, “Low-calcemic, highly antiproliferative, 23-oxa ether analogs of the natural hormone 1 alpha,25-dihydroxyvitamin D3: design, synthesis, and preliminary biological evaluation” (J Med Chem, 2007)
